How the values were obtained:
CYP2C9 = CYP2C9 (Homo sapiens (Human), UniProt P11712); assay: CYP inhibition, CYP2C9; type: in vitro ADME; details: test compound at 10 μM, read-out: % Inhibition (PIN) 2C9
Description: The aim of this assay is to determine the inhibitory potential of a test compound. A major concern for drug-drug-interaction is cytochrome P450 inhibition. Reversible CYP inhibition was determined in human liver microsomes using specific probe substrates for human cytochrome P450 isoenzymes CYP1A2, 2C9, 2C19, 2D6 and 3A4.
The potential for CYP450 inhibition was assessed by performing in vitro inhibition studies using fluorogenic CYP450 substrates with the corresponding CYP450 enzymes and NADPH regeneration system (Vivid CYP450 Screening Kits) with some minor changes to the manufacturer's protocols. The fluorescent signal produced from reaction is directly proportional to the cytochrome P450 activity. In the cases when tested compounds interfere with the CYP450 enzyme-substrate reaction, the fluorescent signal decreases. […] After 10 minutes pre-incubation, the enzymatic reaction was initiated by the addition of a mix of NADPH and the appropriate CYP450 substrates. The plate was incubated for the desired reaction time (25 min for CYP1A2, CYP2C9, CYP2D6, and CYP3A4, 60 min for CYP2C19) after which Stop Reagent was added and fluorescence measured using SpectraMax Paradigm Multi-Mode Microplate Reader. All test points were performed in quadruplicates at concentration 10 μM (1% DMSO).
A 10 mM stock solution of test compound is prepared in methanol. This stock is further serially diluted 1:3 in methanol and then added to mixture containing 50 mM potassium phosphate buffer pH7.4, human liver microsomes (BD Gentest) and probe substrate. […]
After incubation at 37° C., the reaction (aliquot of 50 μL) is terminated with 150 μL CH3CN:MeOH (2:1) solution with internal standard (warfarin for 2C9, diclofenac for all other tested isoforms). Samples are centrifuged and the supernatant fractions analyzed by LC-MS/MS.
The instrument responses (ratio of test compound and internal standard peak areas) are referenced to those for solvent controls (assumed as 100%) in order to determine the percentage reduction in probe metabolism. Percent of control activity vs. concentration plots are generated and fitted using GraphPad Prism software to generate IC50.

human AT1R = human AT1R (Homo sapiens (Human), UniProt P30556); assay: Counterscreen radioligand binding assay, displacement of 125I-[Sar1, Ile8]-Angiotensin II, hAT1R WT; details: for inhibition at 1 µM / inhibition at 10 µM: 125I-[Sar1, Ile8]-Ang II, semi-quantitative score; for inhibition at 1 µM: compound at 1 μM, read-out: % Displaced radioligand at 1 μM; for inhibition at 10 µM: compound at 10 μM, read-out: % Displaced radioligand at 10 μM; for IC50: HEK-293 cell membranes, read-out: Binding affinity On hAT1R IC50
Chain of human AT1R (P30556 whole entry): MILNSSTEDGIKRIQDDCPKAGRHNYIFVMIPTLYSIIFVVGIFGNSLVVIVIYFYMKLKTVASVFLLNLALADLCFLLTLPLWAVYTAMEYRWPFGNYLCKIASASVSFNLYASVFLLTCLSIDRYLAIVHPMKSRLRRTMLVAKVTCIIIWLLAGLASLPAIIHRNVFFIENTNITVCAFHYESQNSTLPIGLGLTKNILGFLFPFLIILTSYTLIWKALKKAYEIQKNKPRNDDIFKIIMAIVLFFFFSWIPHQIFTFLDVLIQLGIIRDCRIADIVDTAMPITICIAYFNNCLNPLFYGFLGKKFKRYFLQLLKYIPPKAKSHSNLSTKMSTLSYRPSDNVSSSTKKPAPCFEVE
Method in brief: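 Compounds displaced 0.05 nM 125I-[Sar1, Ile8]-Ang II from human AT1R in HEK-293 membranes (1 h, 25° C; Tris/MgCl2/EDTA/BSA buffer, pH 7.4). Readout was filtration and scintillation counting, with non-specific binding set by 10 μM [Sar1]-Ang II. Values are % displacement at 1 μM and […], or IC50 from eight-point four-parameter fits.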

Chain of CYP2C9 (P11712 whole entry): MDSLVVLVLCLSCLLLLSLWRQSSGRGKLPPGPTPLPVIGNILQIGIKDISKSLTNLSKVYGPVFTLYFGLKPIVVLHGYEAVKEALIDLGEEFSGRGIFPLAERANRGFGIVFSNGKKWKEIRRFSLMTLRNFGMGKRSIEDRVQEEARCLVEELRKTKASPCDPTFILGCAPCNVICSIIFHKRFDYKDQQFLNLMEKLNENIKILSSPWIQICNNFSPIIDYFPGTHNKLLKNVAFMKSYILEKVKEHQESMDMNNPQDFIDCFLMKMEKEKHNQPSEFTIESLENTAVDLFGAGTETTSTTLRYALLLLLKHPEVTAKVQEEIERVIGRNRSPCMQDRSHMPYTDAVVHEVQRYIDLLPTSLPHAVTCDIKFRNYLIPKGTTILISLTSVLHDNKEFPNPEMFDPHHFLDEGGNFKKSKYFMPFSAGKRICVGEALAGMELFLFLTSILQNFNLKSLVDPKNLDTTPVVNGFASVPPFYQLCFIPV

| Structure (SMILES) | inhibition at 10 µM (CYP2C9) [%] | inhibition at 1 µM (human AT1R) [%] | inhibition at 10 µM (human AT1R) [%] | IC50 (human AT1R) [µM] |
| --- | --- | --- | --- | --- |
| CC(C)Oc1ccc(-c2nn[nH]n2)c(N2CCN(Cc3nc4ccccc4c(=O)[nH]3)CC2)c1 [Compound A-32] | 62.4 | < 30 | < 30 | – |
| CCCCNC(=O)NS(=O)(=O)c1ccc(C(F)(F)F)cc1N1CCN(Cc2nc3ccccc3n2C)CC1 [Compound A-10, 1-butyl-3-[2-[4-[(1-methylbenzimidazol-2-yl)methyl]piperazin-1-yl]-4-(trifluoromethyl)phenyl]sulfonyl-urea] | 46.1 | < 30 | < 30 | – |
| CC(C)Cc1ccc(-c2nn[nH]n2)c(N2CCN(Cc3ncccn3)CC2)c1 [Compound A-88] | 15.8 | < 30 | < 30 | – |
| CC(C)Oc1ccc(-c2nn[nH]n2)c(N2CCN(Cc3nc4ccccc4n3C)CC2)c1 [Compound A-24, 2-[[4-[5-isopropoxy-2-(2H-tetrazol-5-yl)phenyl]piperazin-1-yl]methyl]-1-methyl-benzimidazole] | 36.6 | < 30 | < 30 | – |
| CC(C)Cc1ccc(-c2nn[nH]n2)c(N2CCN(Cc3nc4ccccc4n3C)CC2)c1 [Compound A-20, 2-[[4-[5-isobutyl-2-(2H-tetrazol-5-yl)-phenyl]piperazin-1-yl]methyl]-1-meth-yl-benzimidazole] | – | < 30 | < 30 | 49.7 |
| Cc1cc(CN2CCN(c3cc(CC(C)C)ccc3-c3nn[nH]n3)CC2)no1 [Compound A-82, 3-[[4-[5-isobutyl-2-(2H-tetrazol-5-yl)phenyl]piperazin-1-yl]methyl]-5-methyl-isoxazole] | 32.1 | < 30 | < 30 | – |
| CC(C)Cc1ccc(-c2nn[nH]n2)c(N2CCN(Cc3nccn3C)CC2)c1 [Compound A-83, 1-[5-isobutyl-2-(2H-tetrazol-5-yl)-phenyl]-4-[(1-meth-ylimidazol-2-yl)-methyl]piperazine] | 3.37 | < 30 | < 30 | – |
| CC(C)Cc1ccc(-c2nn[nH]n2)c(N2CCN(Cc3nc4ccccc4c(=O)[nH]3)CC2)c1 [Compound A-31, 2-[[4-[5-isobutyl-2-(2H-tetrazol-5-yl)phenyl]piperazin-1-yl]methyl]-3H-quinazolin-4-one] | 73 | < 30 | < 30 | – |
| CCC1CN(c2cc(CC(C)C)cc(F)c2-c2nn[nH]n2)CCN1Cc1cccnn1 (stereo not shown) [Compound A-178, 3-[[2-ethyl-4-[3-fluoro-5-isobutyl-2-(2H-tetrazol-5-yl)phenyl]piperazin-1-yl]methyl]pyridazine] | 45.6 | < 30 | < 30 | – |
| CCCCOC(=O)NS(=O)(=O)c1ccc(C(F)(F)F)cc1N1CCN(Cc2nc3ccccc3n2C)CC1 [Compound A-09, butyl N-[2-[4-[(1-methylbenzimidazol-2-yl)methyl]piperazin-1-yl]-4-(trifluoromethyl)phenyl]sulfonylcarbamate] | – | < 30 | < 30 | 36.5 |
| CC(C)Cc1ccc(-c2nn[nH]n2)c(N2CCN(Cc3ccnn3C)CC2)c1 [Compound A-84, 1-[5-isobutyl-2-(2H-tetrazol-5-yl)phenyl]-4-[(1-methylpyrazol-5-yl)methyl]piperazine] | 56.2 | < 30 | < 30 | – |
| CC(C)Oc1ccc(-c2nn[nH]n2)c(N2CCN(Cc3nc4ccccc4s3)CC2)c1 [Compound A-51, 2-[[4-[5-isoprop-oxy-2-(2H-tetrazol-5-yl)phenyl]piper-azin-1-yl]methyl]-1,3-benzothiazole] | – | < 30 | < 30 | 55 |
| CCCCNC(=O)NS(=O)(=O)c1ccc(C)cc1N1CCN(Cc2nc3ccccc3n2C)CC1 [Compound A-12, 1-butyl-3-[4-methyl-2-[4-[(1-methylbenzimidazol-2-yl)methyl]piperazin-1-yl]phenyl]sulfonyl-urea] | – | < 30 | < 30 | – |

The remaining lines, values ahead:

| inhibition at 10 µM (CYP2C9) [%] | inhibition at 1 µM (human AT1R) [%] | inhibition at 10 µM (human AT1R) [%] | IC50 (human AT1R) [µM] | Structure (SMILES) |
| --- | --- | --- | --- | --- |
| 51 | < 30 | 30 to 50 | 17.5 | CC(C)Cc1cc(F)c(-c2nn[nH]n2)c(N2CCN(Cc3ccccn3)[C@@H](C)C2)c1 [Compound A-217, (2S)-4-[3-fluoro-5-isobutyl-2-(2H-tetrazol-5-yl)phenyl]-2-methyl-1-(2-pyridylmethyl)piperazine] |
| 43 | < 30 | < 30 | – | Cc1cnc(CN2CCN(c3cc(CC(C)C)cc(F)c3-c3nn[nH]n3)C[C@@H]2C)s1 [Compound A-223, 2-[[(2S)-4-[3-fluoro-5-isobutyl-2-(2H-tetrazol-5-yl)phenyl]-2-methyl-piperazin-1-yl]methyl]-5-methyl-thiazole] |
| 17.2 | < 30 | < 30 | – | CC(C)Cc1cc(F)c(-c2nn[nH]n2)c(N2CCN(Cc3cccnn3)C(C)C2)c1 (stereo not shown) [Compound A-173, 3-[[4-[3-fluoro-5-isobutyl-2-(2H-tetrazol-5-yl)phenyl]-2-methyl-piperazin-1-yl]methyl]pyridazine] |
| – | < 30 | < 30 | – | CCC1CN(Cc2cccnn2)CCN1c1cc(CC(C)C)cc(F)c1-c1nn[nH]n1 (stereo not shown) [Compound A-181, 3-[[3-ethyl-4-[3-fluoro-5-isobutyl-2-(2H-tetrazol-5-yl)phenyl]piperazin-1-yl]methyl]pyridazine] |
| – | < 30 | < 30 | – | CC(C)Cc1cc(F)c(-c2nn[nH]n2)c(N2CC(C)N(Cc3cccnn3)CC2C)c1 (stereo not shown) [Compound A-183, 3-[[4-[3-fluoro-5-isobutyl-2-(2H-tetrazol-5-yl)phen-yl]-2,5-dimethyl-piperazin-1-yl]-methyl]pyridazine] |
| 28.4 | < 30 | < 30 | – | CC(C)Cc1ccc(-c2nn[nH]n2)c(N2CCN(Cc3cccnn3)CC2)c1 [Compound A-90, 3-[[4-[5-isobutyl-2-(2H-tetrazol-5-yl)phenyl]piperazin-1-yl]methyl]pyridazine] |
| 20.9 | < 30 | < 30 | – | CC(C)Cc1cc(F)c(-c2nn[nH]n2)c(N2CCN(Cc3cccnn3)[C@@H](C)C2)c1 [Compound A-174, 3-[[(2S)-4-[3-fluoro-5-isobutyl-2-(2H-tetrazol-5-yl)phenyl]-2-methyl-piperazin-1-yl]methyl]pyridazine] |

Source: patent publication US20240368133A1, “Compounds for the Treatment of Pain, in Particular, Neuropathic Pain, and/or Other Diseases or Disorders that are Associated with AT2R and/or AT2R Mediated Signaling” (Confo Therapeutics N.V., priority 2021, published 2024)
